Assay results published in US8691255B2, “Method of producing high alcohol content foaming compositions with silicone-based surfactants” (Deb Worldwide Healthcare Inc., priority 2005, dated 2014).

Experiment: Foam evaluation of the prepared solutions: foam produced or not, and foam description
Type: physicochemical
Settings: alone, 40% ethanol, 3% CAPB; compared with 60% v/v ethanol and less than 1.0% silicone-based surfactants
Description: Examples 1 through 12 were prepared to illustrate the ability to produce alcohol-based disinfecting formulations which can be dispensed as foams using different surfactants and a solution of water and 50% ethanol. Examples 13 through 16 illustrate increasing concentrations of a silicone-based surfactant to produce foam with 40% ethanol. Examples 17 through 32 show increasing concentrations of ethanol with different silicone-based surfactants to produce foam. Examples 33 through 36 illustrate increasing concentrations of a silicone-based surfactant to produce acceptable foam at 62% ethanol. Examples 37 through 52 illustrate the ability to produce foam using different surfactants and a solution of 70% v/v Isopropanol. All parts and percentages are expressed by weight unless otherwise indicated.
The following examples were intended to evaluate the foaming ability of different groups of Silicon surfactants with different combinations of ethanol, n-propyl alcohol and Isopropyl alcohol. They were also designed to assess the effect in the after feel as well as in the foam quality of some emollients and humectants, lipids, and other cosmetic type desired ingredients to be used with a leave-on hand sanitizer product. […]
The solutions prepared, were evaluated as to whether foam was produced or not and if so, then the foam produced was described as follows: […]

With Cocamidopropyl betaine the foam results was “unable to produce as good results”.
